We go through one substance from US12697352B2, “Instructions for composition and sensitivity” (Azura Ophthalmics Ltd., priority 2020, dated 2026).

Where two headings read alike, the source gives them in different places.

Data set [1] has as its system patients. The text has this: In a clinical study three different concentrations were used; 0.1 wt. %, (10 subjects) 0.5 wt. % (12 subjects) and 1 wt. % (26 subjects).
The subject of the next data set is human subject. As to the method:
In most instances, the treatment is applied on a biweekly basis, however some patients move to daily application based on prespecified protocol criteria. Because the ointment-based composition is known to mix with tear fluid and cause blurry vision, individuals in this study are advised to apply the treatment prior to bed so as to avoid risks associated with reduced vision acuity. […] The in-office applications are conducted at specific, pre-determined time points. In these instances, the treatment is not applied before bed but rather is performed during daylight hours.

The subject of data set [2] is patients. Conditions: in vivo. Here is the method: In a first study patients were instructed to dose in both the evening, between visits, and in the daytime during regular scheduled clinic visits as part of the study protocol. Study patients received a 2-week run-in on a placebo which was administered twice weekly for a period of two weeks.
Adverse events comprise a feeling of grittiness, foreign body feeling, stinging, blurry vision, redness, tired eyes, water eyes, irritation, lid abnormalities, burning, corneal abrasion, photophobia, staining, or dry eye disorder (DED).

The test system of data set [3] is meibomian gland disorder (MGD) patients. Particulars: twice a week, 3 month time point. Here is the method:
The drug was applied twice a week and final evaluation was done at the 3 month time point in which the primary outcome of Meibomian Gland Score (MGS) was assessed.

For a further data set, the system named is rabbits. Particulars: dose about 4 mg SeS2, concentration up to 2.5 wt. %, ointment applied over the eyelid margin.
Another data set deals with seborrheic blepharitis. Particulars: cited from earlier work.
The conditions of data set [4]: in vivo; cited from earlier work.

For selenium disulfide [SeS2], in the data set on patients [1] (human, in vivo), the development of keratitis entry is reported as “no development of keratitis”, the “occurrence of keratitis with bedtime applications” value is on record as “without a single occurrence of keratitis” and the “subjects who developed keratitis or keratitis related symptoms” value is reported as “four”. For the same substance, the “total OSDI, VAS and SPEED” value in the data set on patients [1] (one patient, 1 wt. %, first month, twice weekly at home before bedtime) was “significant improvement”. The “health outcomes by OSDI, VAS and SPEED” value in the data set with human subject (at least one patient, 1 wt. %, one month of treatment) is on record as “improved health outcomes”. Besides, in the data set with human subject (in vivo), the keratitis result was “Keratitis is not observed” and the “patients noting symptoms of keratitis” value is reported as “four”. For the same substance, in the data set with patients [2], the “reduction in the incidence of ocular adverse events” value is 75% and the “reduction of rate of ocular adverse events (ocular AE)” value is recorded as “at least 50%”. Also, the “average change from baseline in Meibomian Gland Score (MGS)” value in data set [3] (9 patients applying with finger) was 10 (+/−8.2). Besides, in data set [3] (13 patients using the applicator (swab)), the “average change from baseline in Meibomian Gland Score (MGS)” value is 2.3 (+/−4.4). Also, in the data set on rabbits, the tolerability result is “well tolerated”. Moreover, the “efficacy in treating seborrheic blepharitis” value with seborrheic blepharitis (SeS2 0.5%, conclusion of most investigators) is given as “effective”. For the same substance, in the data set with seborrheic blepharitis (in vivo), the “adverse events following topical ocular use” value is “superficial punctate keratitis and conjunctivitis”; the “safe concentration of ophthalmic preparation for use in humans” value is 0.5%. Moreover, in data set [4], the “adverse effect of shampooing” value was “diffuse hair loss”, the “contact dermatitis or photo-contact dermatitis in tinea versicolor treatment” value was “None of the investigators encountered a single case”, the skin irritant effect result is recorded as “can produce contact dermatitis” and the “skin reaction after shampoo application” value is recorded as “circumscribed eczematous plaques on the light-exposed areas”. The “time to resolution of hair loss after discontinuance” value in data set [4] was 1-2 weeks.
